Source: patent US11304964B2, “Bolaamphiphilic compounds, compositions and uses thereof” (priority 2012, dated 2022)

Assay: Pharmacokinetic studies, second set (LC-MS, brain)
Format: in vivo
Settings: pyrido pretreated mice
Description: Another group of mice were injected with free tenofovir. The total dose of tenofovir that was injected to the mice that received encapsulated tenofovir was […], out of which 7.5 mg/kg was encapsulated tenofovir. The total dose of tenofovir that was injected to the mice that received free tenofovir was 75 mg/kg. All animals were pretreated with 0.5 mg/kg pyrido. Results are mean of 5 mice±SD.
In the second set of the PK studies, all the mice were pretreated with pyrido 15 min prior to the injection of 7.5 mg/kg tenofovir encapsulated in optimal vesicles or with 75 mg/kg free tenofovir with no vesicles.

In the case of `C[C@H](Cn1cnc2c(N)ncnc21)OCP(=O)(O)O` [tenofovir, ({[(2R)-1-(6-amino-9H-purin-9-yl)propan-2-yl]oxy}methyl)phosphonic acid], the “concentration of tenofovir in the brain” value (7.5 mg/kg tenofovir encapsulated in optimized V-Smart vesicles, all time points up to 2 hours, vs estimated therapeutic threshold) is reported as over 100 ng/mL, the “concentrations of tenofovir in the brain” value (free drug 75 mg/kg, no vesicles, detection limit 40 ng/ml) is reported as “below the measurable level” and the concentration at 60 min (mouse, brain, intravenous, 7.5 mg/kg encapsulated in optimized V-Smart vesicles, 60 min after the injection, read-out: concentration of tenofovir in the brain) is reported as about 1000 ng/mL. The concentration at 15 min (mouse, brain, intravenous, 7.5 mg/kg encapsulated in optimized V-Smart vesicles, after 15 min, read-out: concentration of tenofovir in the brain) was over 6000 ng/g.
